Data reported in PubChem BioAssay (NCI).
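48-hour exposure; five concentrations; linearly interpolated endpoints. Here, GI50 denotes the concentration required for 50% inhibition of growth. Definition used: TGI = concentration required for complete inhibition of growth.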

Experiments:
Assay in all cases: inhibition of tumour cell growth, NCI panel, 48 h
[1] = test system: HOP-92 NSCLC
[2] = test system: NCI-H522 lung
[3] = test system: SW-620 colon
[4] = test system: K-562 leukemia
[5] = test system: SN12C renal
[6] = test system: SF-539 CNS
[7] = test system: OVCAR-5 ovarian
[8] = test system: EKVX NSCLC
[9] = test system: BT-549 breast
[10] = test system: MCF7 breast

Compound | GI50 [1] | TGI [1] | GI50 [2] | TGI [2] | GI50 [3] | TGI [3] | GI50 [4] | TGI [4] | GI50 [5] | TGI [5] | GI50 [6] | TGI [6] | GI50 [7] | TGI [7] | TGI [8] | GI50 [8] | GI50 [9] | TGI [9] | TGI [10] | GI50 [10]
O=C([CH-]C(=O)c1ccccc1)c1ccccc1.O=C([CH-]C(=O)c1ccccc1)c1ccccc1.O=C([CH-]C(=O)c1ccccc1)c1ccccc1.[Ga+3] | > 100 µM | > 100 µM | 19.3 µM | 68.6 µM | 65100 nM | > 100 µM | 30.9 µM | > 100 µM | 43.8 µM | > 100 µM | 33.9 µM | > 100 µM | > 100 µM | > 100 µM | – | – | – | – | – | –
O=C(O)/C=C/c1ccc(O)c(O)c1 | – | > 100 µM | – | > 100 µM | – | > 76.3 µM | – | > 100 µM | – | > 100 µM | – | > 100 µM | – | > 100 µM | > 100 µM | – | – | – | – | –
O=c1nc2n(-c3cccc(Cl)c3)c3ccc([N+](=O)[O-])cc3cc-2c(=O)[nH]1 | 7.75 µM | 24.7 µM | 7.37 µM | 21.6 µM | 2300 nM | > 25 µM | 17.1 µM | > 25 µM | 4.55 µM | 10.6 µM | 4.4 µM | 11.8 µM | 11.7 µM | > 25 µM | > 25 µM | 11.9 µM | 4.2 µM | 11.8 µM | – | –
CC(=O)C1(O)CC2(c3ccccc3)C(=O)C1(c1ccccc1)C(c1ccccc1)=C2c1ccccc1 (stereo not given) | – | > 100 µM | – | > 100 µM | – | > 100 µM | – | > 100 µM | – | > 100 µM | – | > 100 µM | – | > 100 µM | > 100 µM | – | – | – | – | –
COC(=O)c1cc2ccc(O)c(O)c2cn1 | – | 26.3 µM | – | 37.9 µM | – | 32.4 µM | – | 8.16 µM | 5.22 µM | 17.3 µM | – | 33.5 µM | – | 35 µM | 38.4 µM | – | – | – | 8.1 µM | –
O=C(CCc1nnc2s/c(=C\c3ccc([N+](=O)[O-])cc3)c(=O)n12)Nc1ccc(Cl)c(Cl)c1 | – | > 100 µM | – | 32.3 µM | – | 58.4 µM | – | 63.9 µM | – | 63.9 µM | – | 32.2 µM | – | > 100 µM | – | – | – | – | – | –
CC(=O)N1C/C(=C\c2ccccc2)C(=O)/C(=C/c2ccccc2)C1 | – | – | – | 27.9 µM | – | 8.37 µM | – | 12.8 µM | – | 28.7 µM | – | 34.3 µM | – | 35.7 µM | 51.3 µM | – | – | – | – | –
CC(C)(CN1CCCCC1)C(=O)/C=C/c1ccccc1 | – | – | – | 26.8 µM | – | 27.8 µM | – | 24.9 µM | – | 42.3 µM | – | 22.9 µM | – | 40.4 µM | 35.2 µM | – | – | – | – | –
C/C(=N/NC(=O)c1ccccc1S(N)(=O)=O)C(CN1CCCCC1)C(C1=C(O)C2C=CC=CC2OC1=O)c1ccccc1 (stereo not given) | – | 77.1 µM | – | > 100 µM | – | > 100 µM | – | > 100 µM | – | > 100 µM | – | > 100 µM | – | > 100 µM | > 100 µM | – | – | – | – | –
O=C(/C=C/c1ccccc1)NC1C=Nc2ccc([N+](=O)[O-])cc2NC1=O (stereo not given) | – | > 100 µM | – | > 100 µM | – | > 100 µM | – | > 100 µM | – | > 100 µM | – | > 100 µM | – | > 100 µM | > 100 µM | – | – | – | – | –
C[C@@H]1C(=O)CC2C(C)(C)CCC[C@]2(C)[C@@]12CC[C@]1(C=COC1)O2 (stereo not given in full) | – | 48 µM | – | 50 µM | – | > 100 µM | – | 80.4 µM | – | 38 µM | – | > 100 µM | – | > 100 µM | > 100 µM | – | – | – | – | –
Cc1c(C(Cc2ccccc2N(C)C(=O)/C=C\C(=O)O)c2c[nH]c3ccccc23)c2ccccc2n1C (stereo not given) | – | – | – | 28.6 µM | – | 34.5 µM | – | 54.7 µM | – | 30 µM | – | 31.8 µM | – | 35.6 µM | 33.1 µM | – | – | – | – | –
CC(C)=CCC/C(C)=C/CC/C(C)=C/CSC[C@H](NC(=O)CCCCCN1CCN(C)CC1)C(=O)NC1CCCCCC1 | 2.3 µM | 8.39 µM | – | – | 1870 nM | 3.88 µM | 2.24 µM | 5.14 µM | 2.05 µM | 4.51 µM | 1.89 µM | 3.38 µM | 1.84 µM | 3.6 µM | – | – | – | – | 4.79 µM | 2120 nM
NC1=C(O)c2cccc3cccc(c23)C1=O | – | > 100 µM | – | > 100 µM | – | > 100 µM | – | > 100 µM | – | > 100 µM | – | > 100 µM | – | > 100 µM | > 100 µM | – | – | – | – | –
Cc1cc(N(CCC#N)CCC#N)ccc1/C=C(\NC(=O)/C=C/c1ccccc1)C(=O)N=[N+]=[N-] | – | – | – | > 100 µM | – | > 100 µM | – | > 100 µM | – | > 100 µM | – | > 100 µM | – | > 100 µM | > 100 µM | – | – | – | – | –
Cn1cc(C2=C(c3ccsc3)C(=O)NC2=O)c2ccccc21 | – | – | > 25 µM | > 25 µM | > 25000 nM | > 25 µM | > 25 µM | > 25 µM | > 25 µM | > 25 µM | 24.2 µM | > 25 µM | > 25 µM | > 25 µM | – | – | > 25 µM | > 25 µM | > 25 µM | 1580 nM
